From article PMC9667546, “Selective Inhibition of Bruton’s Tyrosine Kinase by a Designed Covalent Ligand Leads to Potent Therapeutic Efficacy in Blood Cancers Relative to Clinically Used Inhibitors” (ACS Pharmacology & Translational Science, 2022)
Values joined by “and” are separate entries in the source; they are usually repeats but may differ in a detail not shown here. Equal values may be shown once. Blank lines part the entries; values can stand above or below the molecule they belong to.

Experiments:
Her2 = settings: read-out: IC50, Her2; Table S3 heat map; ref SI 1-19; cited from earlier work
TXK = target: T1, TXK (Homo sapiens, UniProt P42681); settings: cited from earlier work
T1 construct: host or cells: HEK296T (so in the source)
T1 sequence (P42681 1-527): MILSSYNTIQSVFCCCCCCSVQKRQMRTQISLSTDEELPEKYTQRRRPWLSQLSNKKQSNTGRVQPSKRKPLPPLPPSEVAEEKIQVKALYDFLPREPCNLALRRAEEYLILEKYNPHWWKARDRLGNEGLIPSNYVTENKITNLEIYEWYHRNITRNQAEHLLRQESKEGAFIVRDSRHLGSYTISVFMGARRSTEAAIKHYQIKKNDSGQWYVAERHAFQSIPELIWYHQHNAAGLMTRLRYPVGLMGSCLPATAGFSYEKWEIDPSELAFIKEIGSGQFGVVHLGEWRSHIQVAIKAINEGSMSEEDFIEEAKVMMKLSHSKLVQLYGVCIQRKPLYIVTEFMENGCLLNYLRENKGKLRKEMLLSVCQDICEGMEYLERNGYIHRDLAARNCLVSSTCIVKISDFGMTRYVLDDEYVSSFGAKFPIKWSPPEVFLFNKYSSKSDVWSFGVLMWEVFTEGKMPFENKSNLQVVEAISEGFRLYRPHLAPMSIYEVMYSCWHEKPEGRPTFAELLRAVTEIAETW

BLK = BLK (Homo sapiens, UniProt P51451); settings: cited from earlier work
Sequence of BLK (P51451 whole entry): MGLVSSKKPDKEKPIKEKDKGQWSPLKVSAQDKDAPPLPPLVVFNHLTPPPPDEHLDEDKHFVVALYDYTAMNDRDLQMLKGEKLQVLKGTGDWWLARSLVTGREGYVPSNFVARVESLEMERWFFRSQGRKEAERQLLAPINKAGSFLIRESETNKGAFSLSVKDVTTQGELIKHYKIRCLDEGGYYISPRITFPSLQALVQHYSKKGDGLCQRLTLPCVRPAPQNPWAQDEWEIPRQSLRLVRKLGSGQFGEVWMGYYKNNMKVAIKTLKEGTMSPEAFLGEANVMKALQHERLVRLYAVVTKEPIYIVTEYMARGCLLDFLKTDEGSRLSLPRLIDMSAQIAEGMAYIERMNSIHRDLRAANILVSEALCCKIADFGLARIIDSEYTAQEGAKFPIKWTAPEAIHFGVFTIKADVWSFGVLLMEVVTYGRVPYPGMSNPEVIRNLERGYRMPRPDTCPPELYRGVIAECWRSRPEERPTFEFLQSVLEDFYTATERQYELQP

PBMCs from CLL patients = assay: Zebrafish patient-derived xenografts of chronic lymphocytic leukemia; type: in vivo; settings: all zPDXs, 48 h of treatment
Method: Whole blood (3–6 mL) from CLL patients (Supporting Table S1) was collected, and PBMCs were purified by Ficoll-Paque PLUS (GE Healthcare) density centrifugation.
The collected PBMCs were resuspended in RPMI (Biowest) with 3 times their volume and centrifuged at 1400 rpm, 4 °C, for 7 min. Cell pellets were resuspended in DPBS 1× (Biowest) supplemented with universal nuclease at 25 U/mL (Thermo Scientific). Concentration was normalized to […] for zebrafish patient-derived xenograft (zPDX) generation. Prior to drug efficacy analysis in zebrafish, the cells were distributed to proceed for flow cytometry, to determine the percentage of CD19+CD5+ cells within the CD45+ population, from PBMCs of each CLL patient. The maximum tolerated concentration was also determined for each compound in noninjected zebrafish larvae (Supporting Figure S1).
Zebrafish larvae were anesthetized with Tricaine 1×, and thawed PBMCs were microinjected into the perivitelline space of anesthetized zebrafish larvae at 48 h post fertilization. […] At the end of the assay, 4 days post injection, zebrafish xenografts were sacrificed with an overdose of Tricaine 25× and fixed in 4% formaldehyde (Thermo Scientific) overnight, followed by storage in 100% methanol (VWR) at −20 °C.
The whole mount immunofluorescence protocol was started by rehydrating the xenografts through methanol series (75% > 50% > 25% in PBS 1×-Triton 0.1%). Next, the xenografts were permeabilized in PBS 1× with 0.1% (v/v) Triton and incubated in a blocking solution (containing 1% BSA and 1.5% goat serum) for 1 h at room temperature. The xenografts were incubated with the primary antibodies (anti-cleaved caspase 3—Cell Signaling Technology, clone Asp175, 9661, 1:100; anti-human mitochondria—Merck Millipore, clone 113-1, MAB1273, 1:50) diluted in the blocking solution overnight at 4 °C, followed by additional overnight incubation with 1:400 of secondary antibodies: Alexa goat anti-rabbit 594 (35560, Thermo Scientific) and Alexa goat anti-mouse 647 (84545, Thermo Scientific), and nuclei counterstaining with DAPI at 50 μg/mL (Sigma-Aldrich).
All images were obtained using a Zeiss LSM 980 Upright confocal laser scanning microscope. Xenografts were mounted in in-house Mowiol mounting media, and sequential images along tumor’s depth (from cloaca until the end of the tail) with a 5 μm interval were acquired using the z-stack function. […] For tumor burden, the area occupied by the PBMCs in each slice of the z-stack pile was determined by ImageJ software and summed up to obtain the tumor burden per xenograft. […]
Statistical analysis was performed using GraphPad Prism 8. […] A Gaussian distribution was only assumed for data sets that pass both normality tests and were analyzed by an unpaired t-test with Welch’s correction. […]

EGFR = target: T2, EGFR (Homo sapiens, UniProt P00533); settings: cited from earlier work
T2 construct: host or cells: HEK296T (so in the source)
T2 sequence (P00533 25-1210): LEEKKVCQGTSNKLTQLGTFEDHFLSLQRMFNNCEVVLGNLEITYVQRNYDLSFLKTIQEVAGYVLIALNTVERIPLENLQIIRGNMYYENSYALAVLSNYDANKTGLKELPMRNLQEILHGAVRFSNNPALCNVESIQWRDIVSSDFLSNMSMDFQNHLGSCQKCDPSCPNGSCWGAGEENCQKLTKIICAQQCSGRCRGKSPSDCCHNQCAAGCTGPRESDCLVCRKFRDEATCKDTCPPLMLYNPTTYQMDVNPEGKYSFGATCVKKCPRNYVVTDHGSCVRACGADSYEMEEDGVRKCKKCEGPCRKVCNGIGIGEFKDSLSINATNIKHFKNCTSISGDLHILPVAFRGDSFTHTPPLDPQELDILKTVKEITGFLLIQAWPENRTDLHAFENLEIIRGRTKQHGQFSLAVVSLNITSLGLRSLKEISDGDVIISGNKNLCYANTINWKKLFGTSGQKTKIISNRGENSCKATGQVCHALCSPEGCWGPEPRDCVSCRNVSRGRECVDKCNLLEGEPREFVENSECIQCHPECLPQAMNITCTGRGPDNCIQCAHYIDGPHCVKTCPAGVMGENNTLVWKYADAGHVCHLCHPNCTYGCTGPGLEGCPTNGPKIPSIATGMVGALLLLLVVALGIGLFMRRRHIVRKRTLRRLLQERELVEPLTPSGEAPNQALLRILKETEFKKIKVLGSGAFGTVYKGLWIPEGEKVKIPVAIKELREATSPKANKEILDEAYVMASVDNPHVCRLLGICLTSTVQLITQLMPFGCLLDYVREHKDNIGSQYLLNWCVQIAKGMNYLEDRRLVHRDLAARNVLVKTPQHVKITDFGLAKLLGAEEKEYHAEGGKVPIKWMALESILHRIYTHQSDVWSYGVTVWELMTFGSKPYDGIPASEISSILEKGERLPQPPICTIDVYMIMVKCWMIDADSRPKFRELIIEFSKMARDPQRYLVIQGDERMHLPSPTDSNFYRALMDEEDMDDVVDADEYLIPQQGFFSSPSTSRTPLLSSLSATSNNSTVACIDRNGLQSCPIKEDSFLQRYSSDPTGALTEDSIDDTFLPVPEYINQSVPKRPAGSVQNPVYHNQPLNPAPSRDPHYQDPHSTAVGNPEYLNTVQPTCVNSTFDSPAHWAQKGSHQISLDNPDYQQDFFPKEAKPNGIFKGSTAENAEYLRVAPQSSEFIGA

BTK = BTK (Homo sapiens, UniProt Q06187); set-up: purchased Promega Corporation V2941; settings: Table S3 heat map; ref SI 1-19; read-out: IC50, BTK; cited from earlier work
Sequence of BTK (Q06187 whole entry): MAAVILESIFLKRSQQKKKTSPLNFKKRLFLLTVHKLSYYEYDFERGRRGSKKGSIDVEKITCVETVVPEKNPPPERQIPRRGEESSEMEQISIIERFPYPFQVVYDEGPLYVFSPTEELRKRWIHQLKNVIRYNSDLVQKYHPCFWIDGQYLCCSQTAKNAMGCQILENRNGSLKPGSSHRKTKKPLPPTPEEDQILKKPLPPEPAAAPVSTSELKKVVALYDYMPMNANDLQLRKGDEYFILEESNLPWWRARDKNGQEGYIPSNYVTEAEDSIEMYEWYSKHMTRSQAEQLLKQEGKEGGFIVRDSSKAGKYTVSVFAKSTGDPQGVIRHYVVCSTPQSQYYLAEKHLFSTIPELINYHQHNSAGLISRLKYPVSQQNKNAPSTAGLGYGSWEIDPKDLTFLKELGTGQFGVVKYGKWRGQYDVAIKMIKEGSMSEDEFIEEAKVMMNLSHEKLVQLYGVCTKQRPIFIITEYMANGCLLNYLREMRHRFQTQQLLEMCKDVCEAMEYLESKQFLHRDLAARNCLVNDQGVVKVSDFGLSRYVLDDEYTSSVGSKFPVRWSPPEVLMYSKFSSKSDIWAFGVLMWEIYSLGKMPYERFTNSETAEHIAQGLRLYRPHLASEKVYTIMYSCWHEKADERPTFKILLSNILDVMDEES

HL-60 cells (APML) = assay: Cell viability assay (CellTiter-Glo), HL-60; type: cell-based; settings: Homo sapiens, 72 h, n = 3
Method: (§1) All cell lines were purchased from ATCC, except for DoHH-2 cells that were obtained from DSMZ. Cells were cultivated in complete DMEM supplemented with 10% (vol/vol) FBS (Gibco) and 1% of penicillin/streptomycin (Gibco). The cells were grown in a humidified atmosphere of 5% CO2 at 37°C, with the medium changed every other day.
(§2) Cells were inoculated at a density of 5000 cells/well. Serially diluted compounds (starting at 50 μM) were added 24 h later. The assay was performed in triplicates. After 72 h of incubation, cellular viability was assessed by CellTiter-Glo (Promega) according to the manufacturer’s instructions. The values were normalized with the vehicle (DMSO), and the IC50 was calculated using GraphPad Prism 8.

Raji cells (BL) = assay: Cell viability assay (CellTiter-Glo), Raji; type: cell-based; settings: Homo sapiens, 72 h, n = 3
Method: as §1, §2

HBEC-5i cell model = assay: In vitro blood–brain barrier permeability (translocation), HBEC-5i cell model; type: in vitro ADME, human; settings: Translocation 24 h, compound 15 μM
Method: Human cerebral microvascular endothelial cells (HBEC-5i) were cultured as a monolayer on attachment factor protein solution (AF)-coated T-flasks (Gibco), using DMEM/F12 medium (Gibco), supplemented with 10% FBS, 1% penicillin/streptomycin, and 40.0 μg/mL endothelial cell growth supplement (ECGS, Sigma), according to the manufacturer’s instructions. The capacity of the compounds to cross the brain–blood barrier (BBB) was evaluated using an in vitro HBEC-5i cell model, as previously described.[29] Samples from the apical and basolateral sides were collected, and fluorescence intensity was measured using a Varioskan LUX multimode microplate reader. The retention was considered the difference between the initial fluorescence of compounds (100%) and the aggregated apical and basolateral fluorescence.

MOLM-13 cells (AML) = assay: Cell viability assay (CellTiter-Glo), MOLM-13; type: cell-based; settings: Homo sapiens, 72 h, n = 3
Method: as §1, §2

DoHH-2 cells (DLBCL) = assay: Cell viability assay (CellTiter-Glo), DoHH-2; type: cell-based; settings: Homo sapiens, 72 h, n = 3
Method: as §1, §2

Raji cells = assay: Mice xenograft model of Burkitt’s lymphoma (subcutaneous Raji cells); type: in vivo
Method: Female adult BALB/c/NSG mice were injected subcutaneously with 1 × 10^6 Raji cells, in a 1:1 solution of Matrigel Matrix (Corning) to create solid tumors. When tumors reached 180 mm^3 on average, mice were randomized into four groups (n = 6/group), and dosing began every 2 days. […] Tumor size and body weight were monitored periodically for 12 days. At the end of the experiment, mice necropsies were performed. Stereological analysis was conducted by the Histopathology Unit at Instituto Gulbenkian de Ciência and by the Comparative Pathology Unit at Instituto de Medicina Molecular João Lobo Antunes. Quantification of metastases and cell necrosis was performed in all groups (n = 5/group). Statistical analysis was conducted using one-way ANOVA. The Dunnet test was used to analyze the statistical significance between the treatment groups and the control.

TEC = target: T3, TEC (Homo sapiens, UniProt P42680); settings: 1 µM inhibition screening; ref SI 8–10; cited from earlier work
T3 construct: host or cells: HEK296T (so in the source)
T3 sequence (P42680 1-631): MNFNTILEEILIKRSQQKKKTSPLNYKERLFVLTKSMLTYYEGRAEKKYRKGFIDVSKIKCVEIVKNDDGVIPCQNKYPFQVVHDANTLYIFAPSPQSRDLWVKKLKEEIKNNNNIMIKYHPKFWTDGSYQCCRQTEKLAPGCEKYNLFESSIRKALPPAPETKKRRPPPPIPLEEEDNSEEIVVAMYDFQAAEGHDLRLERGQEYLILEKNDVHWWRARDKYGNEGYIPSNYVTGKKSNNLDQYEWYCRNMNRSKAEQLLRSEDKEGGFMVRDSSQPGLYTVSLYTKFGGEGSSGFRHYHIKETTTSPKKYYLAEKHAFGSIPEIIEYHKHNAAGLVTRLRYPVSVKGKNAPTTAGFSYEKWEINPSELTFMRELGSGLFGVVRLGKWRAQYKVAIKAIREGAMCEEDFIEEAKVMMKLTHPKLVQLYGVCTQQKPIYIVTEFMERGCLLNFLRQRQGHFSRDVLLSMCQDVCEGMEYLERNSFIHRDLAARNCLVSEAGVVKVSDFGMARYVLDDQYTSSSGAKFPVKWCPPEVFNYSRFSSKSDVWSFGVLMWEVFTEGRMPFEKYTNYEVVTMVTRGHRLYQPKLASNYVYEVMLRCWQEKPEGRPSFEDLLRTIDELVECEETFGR

[1] = 10 mg/kg, average of 5 animals, stereological analysis
[2] = 10 mg/kg, individual animals #1 to #5 in order
[3] = 1 µM inhibition screening, ref SI 8–10

Compound: CC#CC(=O)N1CC[C@@H](n2c(=O)n(-c3ccc(Oc4ccccc4)cc3)c3c(N)ncnc32)C1 [Tirabrutinib, tirabrutinib]
- IC50 (Her2): 7310 nM
- IC50 (TXK; Table S3 heat map, ref SI 1-19): 92 nM
- IC50 (BLK; read-out: IC50, BLK, Table S3 heat map, ref SI 1-19): 300 nM

Compound: CC1(C)CCC(CN2CCN(c3ccc(C(=O)NS(=O)(=O)c4ccc(NCC5CCOCC5)c([N+](=O)[O-])c4)c(Oc4cnc5[nH]ccc5c4)c3)CC2)=C(c2ccc(Cl)cc2)C1 [venetoclax, reference compound]
- effect on tumor incidence and burden (PBMCs from CLL patients): major impact on tumor incidence and burden

Compound: NC(=O)[C@H]1CCN(c2ncnc(N)c2F)C[C@@H]1N1CCC[C@@H](Nc2cc(Cl)cc(C(F)(F)F)c2)C1=O [Vecabrutinib]
- IC50 (EGFR; Table S3 heat map, ref SI 1-19): > 6 µM
- IC50 (BTK): 3 nM

- IC50 (HL-60 cells (APML)): 7.74 ± 0.03 µM
- IC50 (Raji cells (BL)): 36.2 ± 0.31 µM
- % Fluorescence, Basolateral side (permeability to the BBB) (HBEC-5i cell model): 51.9%
- IC50 (MOLM-13 cells (AML)): ~0.46 µM
Compound: C=CC(=O)N1CCC[C@@H](n2nc(-c3ccc(Oc4ccccc4)cc3)c3c(N)ncnc32)C1 [ibrutinib, reference compound]
- IC50 (DoHH-2 cells (DLBCL)): ~70 nM
- reduction in percentage of metastases (Raji cells; 10 mg/kg i.p. every 2 days, n = 5/group): around 30%
- Metastasis volume, Brain, Average (Raji cells; [1]): 0.78 mm³
- Metastasis volume, Liver, Average (Raji cells; [1]): 4.73 mm³
- Metastasis volume, Lung, Average (Raji cells; [1]): 26.92 mm³
- Metastasis volume, Spinal, Average (Raji cells; [1]): 51.37 mm³
- Secondary tumour, Average (Raji cells; [1]): 64.21 mm³
- Metastasis volume, Brain, single animals (Raji cells; [2]): 0.86 mm³ and 0.82 mm³ and 0.00 mm³ and 1.72 mm³ and 0.48 mm³
- Metastasis volume, Liver, single animals (Raji cells; [2]): 12.05 mm³ and 11.54 mm³ and 0.03 mm³ and 0.00 mm³ (2×)
- Metastasis volume, Lung, single animals (Raji cells; [2]): 134.59 mm³ and 0.00 mm³ (4×)
- Metastasis volume, Spinal, single animals (Raji cells; [2]): 55.71 mm³ and 86.64 mm³ and 4.378 mm³ and 10.76 mm³ and 99.35 mm³
- Secondary tumour, single animals (Raji cells; [2]): 96.59 mm³ and 0.00 mm³ (3×) and 224.46 mm³

Compound: C=CC(=O)N1CCC([C@@H]2CCNc3c(C(N)=O)c(-c4ccc(Oc5ccccc5)cc4)nn32)CC1 [Zanubrutinib, zanubrutinib]
- IC50 (Her2): 661 nM

Compound: C=CC(=O)N1CCC(CNc2ncnc(N)c2-c2ccc(Oc3ccccc3)cc2)CC1 [Evobrutinib, evobrutinib]
- inhibition, EGFR (EGFR; [3]): 0%
- inhibition, TXK (TXK; [3]): 36%
- inhibition, BLK (BLK; [3]): 36%
- inhibition, TEC (TEC): 82%

- % Fluorescence, Basolateral side (permeability to the BBB) (HBEC-5i cell model): 29.2%
- IC50 (MOLM-13 cells (AML)): 28.4 ± 0.03 µM
Compound: CC#CC(=O)N1CCC[C@H]1c1nc(-c2ccc(C(=O)Nc3ccccn3)cc2)c2c(N)nccn12 [acalabrutinib]
